Experiments:
Assay in all cases: KinomeScan
Format in all cases: binding
Details in all cases: 1 μM
[1] = biological target: T1, ABL1(T315I)-nonphosphorylated (Homo sapiens, UniProt P00519, T315I)
T1 construct: purchased DiscoverX (KINOMEscan)
Method: (§1) Assays were performed essentially as described previously. For most assays, kinase-tagged T7 phage strains were grown in parallel in 24-well blocks in an E. coli host derived from the BL21 strain. E. coli were grown to log-phase and infected with T7 phage from a frozen stock (multiplicity of infection ~0.1) and incubated with shaking at 32 °C until lysis (~90 min). The lysates were centrifuged (6000× g) and filtered (0.2 μm) to remove cell debris. The remaining kinases were produced in HEK-293 cells and subsequently tagged with DNA for qPCR detection. […] The liganded beads were blocked with excess biotin and washed with blocking buffer (SeaBlock (Pierce, ThermoFisher Scientific, Illkirch, France), 1% BSA, 0.05% Tween 20, 1 mM DTT) to remove unbound ligand and to reduce non-specific phage binding. […] An 11-point threefold serial dilution of each test compound was prepared in 100% DMSO at 100× final test concentration which and subsequently diluted to 1× in the assay. All reactions were performed in polystyrene 96-well plates in a final volume of 0.135 mL. […] The kinase concentration in the eluates was measured by qPCR.

[2] = biological target: T2, ACVR1B (Homo sapiens, UniProt P36896)
T2 construct: purchased DiscoverX (KINOMEscan)
Method: as §1

[3] = biological target: T3, AKT2 (Homo sapiens, UniProt P31751)
T3 construct: purchased DiscoverX (KINOMEscan)
Method: as §1

[4] = biological target: T4, AURKB (Homo sapiens, UniProt Q96GD4)
T4 construct: purchased DiscoverX (KINOMEscan)
Method: as §1

[5] = biological target: T5, BMPR2 (Homo sapiens, UniProt Q13873)
T5 construct: purchased DiscoverX (KINOMEscan)
Method: as §1

[6] = biological target: T6, BMX (Homo sapiens, UniProt P51813)
T6 construct: purchased DiscoverX (KINOMEscan)
Method: as §1

[7] = biological target: T7, BTK (Homo sapiens, UniProt Q06187)
T7 construct: purchased DiscoverX (KINOMEscan)
Method: as §1

[8] = biological target: T8, CDKL3 (Homo sapiens, UniProt Q8IVW4)
T8 construct: purchased DiscoverX (KINOMEscan)
Method: as §1

[9] = biological target: T9, CTK (Homo sapiens, UniProt P42679)
T9 construct: purchased DiscoverX (KINOMEscan)
Method: as §1

[10] = biological target: DYRK1A (Homo sapiens, UniProt Q13627)
Method: as §1

[11] = biological target: T10, EGFR(L747-E749del, A750P) (Homo sapiens, UniProt P00533, A750P/DEL747-749)
T10 construct: purchased DiscoverX (KINOMEscan)
Method: as §1

[12] = biological target: T11, EPHA5 (Homo sapiens, UniProt P54756)
T11 construct: purchased DiscoverX (KINOMEscan)
Method: as §1

[13] = biological target: T12, ERBB2 (Homo sapiens, UniProt P04626)
T12 construct: purchased DiscoverX (KINOMEscan)
Method: as §1

[14] = biological target: T13, ERK5 (Homo sapiens, UniProt Q13164)
T13 construct: purchased DiscoverX (KINOMEscan)
Method: as §1

[15] = biological target: T14, FGFR3(G697C) (Homo sapiens, UniProt P22607, G697C)
T14 construct: purchased DiscoverX (KINOMEscan)
Method: as §1

[16] = biological target: T15, GCN2(Kin.Dom.2,S808G) (Homo sapiens, UniProt Q9P2K8, S808G)
T15 construct: GCN2(Kin.Dom.2,S808G); purchased DiscoverX (KINOMEscan)
Method: as §1

[17] = biological target: T16, ITK (Homo sapiens, UniProt Q08881)
T16 construct: purchased DiscoverX (KINOMEscan)
Method: as §1

[18] = biological target: T17, JAK1(JH1domain-catalytic) (Homo sapiens, UniProt P23458)
T17 construct: JAK1(JH1domain-catalytic); purchased DiscoverX (KINOMEscan)
Method: as §1

[19] = biological target: T18, JNK1 (Homo sapiens, UniProt P45983)
T18 construct: purchased DiscoverX (KINOMEscan)
Method: as §1

[20] = biological target: T19, JNK3 (Homo sapiens, UniProt P53779)
T19 construct: purchased DiscoverX (KINOMEscan)
Method: as §1

[21] = biological target: T20, KIT(V559D) (Homo sapiens, UniProt P10721, V559D)
T20 construct: purchased DiscoverX (KINOMEscan)
Method: as §1

[22] = biological target: T21, KIT(V559D,V654A) (Homo sapiens, UniProt P10721, V559D/V654A)
T21 construct: purchased DiscoverX (KINOMEscan)
Method: as §1

[23] = biological target: T22, LKB1 (Homo sapiens, UniProt Q15831)
T22 construct: purchased DiscoverX (KINOMEscan)
Method: as §1

[24] = biological target: T23, MAP4K5 (Homo sapiens, UniProt Q9Y4K4)
T23 construct: purchased DiscoverX (KINOMEscan)
Method: as §1

[25] = biological target: T24, MKK7 (Homo sapiens, UniProt O14733)
T24 construct: purchased DiscoverX (KINOMEscan)
Method: as §1

[26] = biological target: T25, MRCKA (Homo sapiens, UniProt Q5VT25)
T25 construct: purchased DiscoverX (KINOMEscan)
Method: as §1

[27] = biological target: T26, NEK7 (Homo sapiens, UniProt Q8TDX7)
T26 construct: purchased DiscoverX (KINOMEscan)
Method: as §1

[28] = biological target: T27, RPS6KA4 (Kin.Dom.2-C-terminal) (Homo sapiens, UniProt O75676)
T27 construct: Kin.Dom.2-C-terminal; purchased DiscoveRx (KinomeScan, San Diego, CA, USA)
Method: as §1

[29] = biological target: T28, STK16 (Homo sapiens, UniProt O75716)
T28 construct: purchased DiscoverX (KINOMEscan)
Method: as §1

[30] = biological target: T29, STK39 (Homo sapiens, UniProt Q9UEW8)
T29 construct: purchased DiscoverX (KINOMEscan)
Method: as §1

[31] = biological target: T30, TAOK2 (Homo sapiens, UniProt Q9UL54)
T30 construct: purchased DiscoverX (KINOMEscan)
Method: as §1

[32] = biological target: T31, TNIK (Homo sapiens, UniProt Q9UKE5)
T31 construct: purchased DiscoverX (KINOMEscan)
Method: as §1

[33] = biological target: T32, TNNI3K (Homo sapiens, UniProt Q59H18)
T32 construct: purchased DiscoverX (KINOMEscan)
Method: as §1

[34] = biological target: T33, TTK (Homo sapiens, UniProt P33981)
T33 construct: purchased DiscoverX (KINOMEscan)
Method: as §1

[35] = biological target: T34, TYRO3 (Homo sapiens, UniProt Q06418)
T34 construct: purchased DiscoverX (KINOMEscan)
Method: as §1

T32 sequence (Q59H18 whole entry): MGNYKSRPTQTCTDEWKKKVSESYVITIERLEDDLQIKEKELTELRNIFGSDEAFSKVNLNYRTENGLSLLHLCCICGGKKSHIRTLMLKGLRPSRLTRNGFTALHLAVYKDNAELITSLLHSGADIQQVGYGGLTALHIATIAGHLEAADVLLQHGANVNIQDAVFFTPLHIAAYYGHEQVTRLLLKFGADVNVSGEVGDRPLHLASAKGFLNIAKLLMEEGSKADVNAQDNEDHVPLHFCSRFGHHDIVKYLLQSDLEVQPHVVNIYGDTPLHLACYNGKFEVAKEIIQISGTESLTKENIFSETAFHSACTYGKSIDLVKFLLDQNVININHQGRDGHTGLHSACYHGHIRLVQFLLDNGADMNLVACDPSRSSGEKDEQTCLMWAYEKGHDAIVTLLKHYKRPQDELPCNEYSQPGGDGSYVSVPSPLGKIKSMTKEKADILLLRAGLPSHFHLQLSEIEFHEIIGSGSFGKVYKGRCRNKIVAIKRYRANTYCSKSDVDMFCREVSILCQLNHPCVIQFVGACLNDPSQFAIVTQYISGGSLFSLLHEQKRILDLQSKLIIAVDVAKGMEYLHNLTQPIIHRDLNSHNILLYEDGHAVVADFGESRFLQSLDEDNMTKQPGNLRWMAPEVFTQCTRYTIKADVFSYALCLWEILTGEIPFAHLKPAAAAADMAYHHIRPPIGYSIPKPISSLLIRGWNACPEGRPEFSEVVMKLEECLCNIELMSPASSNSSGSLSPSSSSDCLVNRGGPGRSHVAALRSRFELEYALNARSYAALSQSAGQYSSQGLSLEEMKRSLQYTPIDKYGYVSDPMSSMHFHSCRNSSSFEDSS
T34 sequence (Q06418 41-890): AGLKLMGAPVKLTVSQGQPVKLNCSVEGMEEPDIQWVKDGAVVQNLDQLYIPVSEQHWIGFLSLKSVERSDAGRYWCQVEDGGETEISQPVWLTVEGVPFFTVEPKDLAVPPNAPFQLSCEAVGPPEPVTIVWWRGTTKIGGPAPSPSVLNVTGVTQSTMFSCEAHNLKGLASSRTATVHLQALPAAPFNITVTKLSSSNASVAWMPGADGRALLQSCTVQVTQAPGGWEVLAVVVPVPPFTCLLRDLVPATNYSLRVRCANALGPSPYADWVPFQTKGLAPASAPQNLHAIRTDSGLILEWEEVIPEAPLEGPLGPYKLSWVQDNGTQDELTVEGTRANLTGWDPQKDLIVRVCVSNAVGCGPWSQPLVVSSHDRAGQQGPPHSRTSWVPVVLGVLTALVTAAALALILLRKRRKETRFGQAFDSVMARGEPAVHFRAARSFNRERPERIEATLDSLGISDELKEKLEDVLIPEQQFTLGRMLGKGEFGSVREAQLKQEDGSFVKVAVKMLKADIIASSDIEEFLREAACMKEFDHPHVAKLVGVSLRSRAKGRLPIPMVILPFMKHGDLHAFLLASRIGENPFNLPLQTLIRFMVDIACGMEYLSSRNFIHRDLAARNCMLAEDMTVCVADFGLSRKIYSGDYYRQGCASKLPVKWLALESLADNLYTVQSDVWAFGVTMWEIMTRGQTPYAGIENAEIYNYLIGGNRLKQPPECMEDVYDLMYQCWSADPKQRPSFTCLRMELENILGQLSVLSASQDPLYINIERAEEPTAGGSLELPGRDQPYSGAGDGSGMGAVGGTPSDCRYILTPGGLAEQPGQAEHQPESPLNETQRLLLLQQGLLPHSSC
T3 sequence (P31751 whole entry): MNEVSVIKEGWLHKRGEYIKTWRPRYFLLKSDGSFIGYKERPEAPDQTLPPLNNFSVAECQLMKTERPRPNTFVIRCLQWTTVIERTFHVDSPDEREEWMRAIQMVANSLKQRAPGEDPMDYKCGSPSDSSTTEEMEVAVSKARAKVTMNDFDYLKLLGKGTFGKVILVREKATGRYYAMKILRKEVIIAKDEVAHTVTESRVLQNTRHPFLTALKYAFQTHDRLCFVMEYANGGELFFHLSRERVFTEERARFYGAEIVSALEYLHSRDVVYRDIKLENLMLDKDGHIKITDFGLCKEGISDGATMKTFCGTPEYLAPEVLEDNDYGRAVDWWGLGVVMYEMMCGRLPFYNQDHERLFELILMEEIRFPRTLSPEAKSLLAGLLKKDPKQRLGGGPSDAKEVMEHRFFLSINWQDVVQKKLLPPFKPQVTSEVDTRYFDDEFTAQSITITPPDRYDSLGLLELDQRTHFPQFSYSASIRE
T15 sequence (Q9P2K8 590-1001 S808G limits assumed): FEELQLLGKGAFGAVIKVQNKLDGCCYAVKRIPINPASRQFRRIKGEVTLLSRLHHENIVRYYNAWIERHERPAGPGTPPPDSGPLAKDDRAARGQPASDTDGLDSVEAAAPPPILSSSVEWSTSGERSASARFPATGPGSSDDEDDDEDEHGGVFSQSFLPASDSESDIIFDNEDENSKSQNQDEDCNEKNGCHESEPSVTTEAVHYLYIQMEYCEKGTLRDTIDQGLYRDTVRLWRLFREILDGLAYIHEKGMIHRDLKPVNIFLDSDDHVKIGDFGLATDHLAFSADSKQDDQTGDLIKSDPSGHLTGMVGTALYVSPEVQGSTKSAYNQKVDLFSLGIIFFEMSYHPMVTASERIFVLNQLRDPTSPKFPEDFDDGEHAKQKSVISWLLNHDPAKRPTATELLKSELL
T10 sequence (P00533 with tags, fused parts or gaps DEL747-749/A750P limits assumed): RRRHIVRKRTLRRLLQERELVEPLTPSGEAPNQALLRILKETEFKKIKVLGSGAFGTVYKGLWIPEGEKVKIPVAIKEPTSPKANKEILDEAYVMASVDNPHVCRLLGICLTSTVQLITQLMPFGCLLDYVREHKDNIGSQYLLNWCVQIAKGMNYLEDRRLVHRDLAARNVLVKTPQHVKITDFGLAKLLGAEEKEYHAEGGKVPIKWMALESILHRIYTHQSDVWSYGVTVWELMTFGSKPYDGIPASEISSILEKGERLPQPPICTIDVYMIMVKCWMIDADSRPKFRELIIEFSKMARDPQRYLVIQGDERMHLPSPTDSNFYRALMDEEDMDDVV
T19 sequence (P53779 whole entry): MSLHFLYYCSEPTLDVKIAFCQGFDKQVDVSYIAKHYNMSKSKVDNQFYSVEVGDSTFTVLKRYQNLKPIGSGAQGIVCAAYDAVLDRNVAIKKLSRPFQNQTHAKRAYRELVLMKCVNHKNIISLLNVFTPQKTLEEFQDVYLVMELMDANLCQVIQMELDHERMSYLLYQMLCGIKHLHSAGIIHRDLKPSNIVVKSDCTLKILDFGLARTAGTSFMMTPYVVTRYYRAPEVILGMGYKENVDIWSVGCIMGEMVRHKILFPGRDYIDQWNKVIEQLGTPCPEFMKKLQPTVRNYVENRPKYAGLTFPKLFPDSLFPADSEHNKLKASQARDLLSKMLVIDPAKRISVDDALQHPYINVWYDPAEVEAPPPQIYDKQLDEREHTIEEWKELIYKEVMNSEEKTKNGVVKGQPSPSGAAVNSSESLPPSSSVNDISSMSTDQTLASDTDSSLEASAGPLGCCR
T20 sequence (P10721 26-976 V559D): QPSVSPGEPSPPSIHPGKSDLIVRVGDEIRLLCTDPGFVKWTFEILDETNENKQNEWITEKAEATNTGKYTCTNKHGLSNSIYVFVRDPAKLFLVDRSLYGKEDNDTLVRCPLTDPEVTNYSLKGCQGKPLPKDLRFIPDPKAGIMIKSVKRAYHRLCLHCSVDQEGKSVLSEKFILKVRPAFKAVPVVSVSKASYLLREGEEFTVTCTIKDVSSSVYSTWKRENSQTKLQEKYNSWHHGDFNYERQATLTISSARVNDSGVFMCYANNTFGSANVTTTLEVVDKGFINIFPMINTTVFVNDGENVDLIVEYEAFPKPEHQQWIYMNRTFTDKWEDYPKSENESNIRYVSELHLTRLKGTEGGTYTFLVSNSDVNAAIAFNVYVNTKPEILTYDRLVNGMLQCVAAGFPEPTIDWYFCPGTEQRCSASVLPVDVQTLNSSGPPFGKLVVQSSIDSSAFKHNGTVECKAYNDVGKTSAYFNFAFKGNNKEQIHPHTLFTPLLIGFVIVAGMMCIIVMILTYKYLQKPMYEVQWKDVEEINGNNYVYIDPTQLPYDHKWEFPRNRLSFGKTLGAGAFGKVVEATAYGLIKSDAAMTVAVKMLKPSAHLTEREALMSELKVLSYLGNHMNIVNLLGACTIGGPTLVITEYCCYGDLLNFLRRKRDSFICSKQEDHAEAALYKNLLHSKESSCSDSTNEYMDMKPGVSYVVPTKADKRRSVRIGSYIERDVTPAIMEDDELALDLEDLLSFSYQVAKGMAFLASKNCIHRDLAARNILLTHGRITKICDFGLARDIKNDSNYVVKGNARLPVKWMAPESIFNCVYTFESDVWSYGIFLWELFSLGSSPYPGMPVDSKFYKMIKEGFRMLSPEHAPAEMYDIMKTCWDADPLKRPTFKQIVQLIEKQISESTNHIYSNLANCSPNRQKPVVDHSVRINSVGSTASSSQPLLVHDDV
T8 sequence (Q8IVW4 whole entry): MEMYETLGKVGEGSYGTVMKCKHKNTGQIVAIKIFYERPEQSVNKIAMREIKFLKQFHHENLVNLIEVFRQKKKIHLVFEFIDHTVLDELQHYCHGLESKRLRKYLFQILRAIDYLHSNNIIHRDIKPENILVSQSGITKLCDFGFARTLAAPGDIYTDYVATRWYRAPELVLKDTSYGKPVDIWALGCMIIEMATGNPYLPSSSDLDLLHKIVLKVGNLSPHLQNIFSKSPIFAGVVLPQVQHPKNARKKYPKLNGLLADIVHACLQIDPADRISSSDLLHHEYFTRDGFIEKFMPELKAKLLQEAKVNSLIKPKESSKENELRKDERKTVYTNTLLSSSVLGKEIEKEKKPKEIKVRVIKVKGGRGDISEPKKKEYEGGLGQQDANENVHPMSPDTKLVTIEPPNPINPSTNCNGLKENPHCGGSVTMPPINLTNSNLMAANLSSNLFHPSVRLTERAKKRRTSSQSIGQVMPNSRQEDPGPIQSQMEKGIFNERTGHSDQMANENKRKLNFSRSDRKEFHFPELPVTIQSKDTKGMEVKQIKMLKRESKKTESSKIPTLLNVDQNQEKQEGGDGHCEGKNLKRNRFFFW
T21 sequence (P10721 26-976 V559D/V654A): as the sequence (P10721 26-976 V559D) above, with V629A counted along it

Structure (SMILES): COc1cc(/C=C2\N=C(N)NC2=O)ccc1O [Polyandrocarpamine A]
- Score [1]: 67
- Score [2]: 81
- Score [3]: 100
- Score [4]: 100
- Score [5]: 95
- Score [6]: 100
- Score [7]: 100
- Score [8]: 100
- Score [9]: 100
- Score [10]: 3
- Score [11]: 100
- Score [12]: 100
- Score [13]: 100
- Score [14]: 100
- Score [15]: 83
- Score [16]: 90
- Score [17]: 94
- Score [18]: 72
- Score [19]: 100
- Score [20]: 93
- Score [21]: 91
- Score [22]: 100
- Score [23]: 100
- Score [24]: 100
- Score [25]: 89
- Score [26]: 100
- Score [27]: 100
- Score [28]: 22
- Score [29]: 100
- Score [30]: 100
- Score [31]: 100
- Score [32]: 100
- Score [33]: 98
- Score [34]: 100
- Score [35]: 100
